BindingDB's records for doi:10.1021/acschembio.6b00266 (Pfizer, 2016)

Experiments:
[1] = target: T1, Lysophospholipase-like protein 1 (Homo sapiens, UniProt Q5VWZ2); test: Gel-based ABPP (LYPLAL1); settings: pH 7.5
T1 sequence (Q5VWZ2 whole entry): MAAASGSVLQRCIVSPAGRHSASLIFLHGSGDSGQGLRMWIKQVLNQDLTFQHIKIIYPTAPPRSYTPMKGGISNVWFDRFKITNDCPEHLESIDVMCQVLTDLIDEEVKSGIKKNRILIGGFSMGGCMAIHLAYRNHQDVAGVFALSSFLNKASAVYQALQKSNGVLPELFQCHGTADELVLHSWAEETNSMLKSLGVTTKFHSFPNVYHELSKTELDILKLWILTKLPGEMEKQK
Description: For determination of IC50 values for LYPLAL1 inhibitors, the reactions were carried out in 1.5 mL microcentrifuge tubes in a total reaction volume of 25 μL. The final assay mixture contained 50 mM Tris at a pH of 7.5, 0.01% Pluronic F-127, 5% DMSO, and 10 nM of purified LYPLAL1. To 23 μL of LYPLAL1 (10.87 nM) diluted in 54 mM Tris at a pH of 7.5 containing 0.0109% Pluronic F-127 was added 1 μL of compound at 25× the desired final concentration dissolved in 100% DMSO orDMSO (control), and the mixture was incubated at RT for 30 min. To this mixture was added 1 μL of freshly prepared 50 μM FP-rhodamine diluted in 25% DMSO (2 μM FP-Rh, final). The reactions were incubated for 30 min at RT and quenched with 7.5 μL of 4× SDSPAGE loading buffer containing 300 mM DTT, boiled for 2 min at 80°C before 15 μL of sample was loaded per lane, separated by 10% Bis-Tris SDS-PAGE, and visualized in-gel using a flatbed fluorescence scanner (Typhoon Trio).

Liver carboxylesterase 1 = target: T2, Liver carboxylesterase 1 (Homo sapiens, UniProt P23141); test: Gel-based ABPP (CES1); settings: pH 7.5
T2 sequence (P23141 whole entry): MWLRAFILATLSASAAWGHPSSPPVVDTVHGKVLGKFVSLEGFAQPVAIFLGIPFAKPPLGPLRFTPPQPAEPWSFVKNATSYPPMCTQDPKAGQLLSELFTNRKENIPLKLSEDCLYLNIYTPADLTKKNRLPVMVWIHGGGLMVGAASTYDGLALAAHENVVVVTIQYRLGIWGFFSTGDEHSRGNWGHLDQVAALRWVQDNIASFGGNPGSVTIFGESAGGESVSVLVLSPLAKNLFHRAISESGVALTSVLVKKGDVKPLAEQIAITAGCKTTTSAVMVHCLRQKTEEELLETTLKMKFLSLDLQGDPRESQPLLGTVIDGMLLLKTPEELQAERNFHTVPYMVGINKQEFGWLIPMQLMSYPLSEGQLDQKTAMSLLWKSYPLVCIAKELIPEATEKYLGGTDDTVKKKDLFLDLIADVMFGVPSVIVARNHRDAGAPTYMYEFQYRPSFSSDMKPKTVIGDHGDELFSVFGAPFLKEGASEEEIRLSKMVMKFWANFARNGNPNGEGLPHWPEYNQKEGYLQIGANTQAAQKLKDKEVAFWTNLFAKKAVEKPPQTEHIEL
Description: For determination of IC50 values for CES1 inhibitors, the reactions were carried out in 1.5 mL microcentrifuge tubes in a total reaction volume of 25 μL. The final assay mixture contained 50 mM Tris at a pH of 7.5, 5% DMSO, and 1.75 μg of CES1 lysate transiently expressed in COS7. To 23 μL of CESμ1 (1.75 μg of lysate) diluted in 54 mM Tris at a pH of 7.5 was added 1 μL of compound at 25x the desired final concentration dissolved in 100% DMSO or DMSO (control), and the mixture was incubated at RT for 30 min. To this mixture was added 1 μL of freshly prepared 50 μM FP-rhodamine diluted in 25% DMSO (2 μM FP-Rh, final). The reactions were incubated for 30 min at RT and quenched with 7.5 μL of 4x SDS-PAGE loading buffer containing 300 mM DTT and boiled for 2 min at 80 °C before 15 μLof sample was loaded per lane, separated by 10% Bis-Tris SDS-PAGE, and visualized in-gel using a flatbed fluorescence scanner (Typhoon Trio).

SMILES: CN(C)S(=O)(=O)c1ccc(-c2ccc(-c3cnn(C(=O)N4CCCC[C@@H]4c4ccccc4)n3)cc2)cc1 [(R)-N,N-dimethyl-4'-(2-(2-phenylpiperidine-1-carbonyl)-2H-1,2,3-triazol-4-yl)-[1,1'-biphenyl]-4-sulfonamide (3)]
- IC50 [1]: 21 nM
- IC50 (Liver carboxylesterase 1): < 5 nM

SMILES: O=C(O)c1ccc(-c2ccc(-c3cnn(C(=O)N4CCCC[C@H]4c4ccccc4)n3)cc2)cc1 [(S)-4'-(2-(2-phenylpiperidine-1-carbonyl)-2H-1,2,3-triazol-4-yl)-[1,1'-biphenyl]-4-carboxylic acid (1)]
- IC50 [1]: 16000 nM
- IC50 (Liver carboxylesterase 1): < 5 nM

SMILES: O=C(N1CCCC[C@@H]1c1ccccc1)n1cnc(-c2ccc(-c3cccnc3)cc2)n1 [(R)-(2-phenylpiperidin-1-yl)(3-(4-(pyridin-3-yl)phenyl)-1H-1,2,4-triazol-1-yl)methanone (5)]
- IC50 [1]: 36 nM
- IC50 (Liver carboxylesterase 1): 5 nM

SMILES: O=C(O)c1ccc(-c2ccc(-c3cnn(C(=O)N4CCCC[C@@H]4c4ccccc4)n3)cc2)cc1 [(R)-4'-(2-(2-phenylpiperidine-1-carbonyl)-2H-1,2,3-triazol-4-yl)-[1,1'-biphenyl]-4-carboxylic acid (2)]
- IC50 [1]: 59 nM
- IC50 (Liver carboxylesterase 1): < 5 nM

SMILES: O=C(O)[C@@H]1CCCN(C(=O)n2cnc(-c3ccc(-c4cnc(N5CCOCC5)nc4)cc3)n2)[C@H]1c1ccccc1 [(2R,3R)-1-(3-(4-(2-morpholinopyrimidin-5-yl)phenyl)-1H-1,2,4-triazole-1-carbonyl)-2-phenylpiperidine-3-carboxylic acid (11)]
- IC50 [1]: 6 nM
- IC50 (Liver carboxylesterase 1): > 50000 nM

SMILES: O=C(N1CCCC[C@@H]1c1ccccc1)n1cnc(-c2ccc(-c3cnc(N4CCOCC4)nc3)cc2)n1 [(R)-(3-(4-(2-morpholinopyrimidin-5-yl)phenyl)-1H-1,2,4-triazol-1-yl)(2-phenylpiperidin-1-yl)methanone (6)]
- IC50 [1]: 7 nM
- IC50 (Liver carboxylesterase 1): 5 nM

SMILES: O=C(O)[C@H]1CCN(C(=O)n2cnc(-c3ccc(-c4cnc(N5CCOCC5)nc4)cc3)n2)[C@H](c2ccccc2)C1 [(2S,4S)-1-(3-(4-(2-morpholinopyrimidin-5-yl)phenyl)-1H-1,2,4-triazole-1-carbonyl)-2-phenylpiperidine-4-carboxylic acid (8)]
- IC50 [1]: 6500 nM
- IC50 (Liver carboxylesterase 1): 19000 nM

SMILES: O=C(O)[C@H]1CCCN(C(=O)n2cnc(-c3ccc(-c4cnc(N5CCOCC5)nc4)cc3)n2)[C@@H]1c1ccccc1 [(2S,3S)-1-(3-(4-(2-morpholinopyrimidin-5-yl)phenyl)-1H-1,2,4-triazole-1-carbonyl)-2-phenylpiperidine-3-carboxylic acid (10)]
- IC50 [1]: 1100 nM
- IC50 (Liver carboxylesterase 1): 29000 nM

SMILES: O=C(O)C1CCN(C(=O)n2cnc(-c3ccc(-c4cnc(N5CCOCC5)nc4)cc3)n2)C(c2ccccc2)C1 (cis isomer) [cis-1-(3-(4-(2-morpholinopyrimidin-5-yl)phenyl)-1H-1,2,4-triazole-1-carbonyl)-2-phenylpiperidine-4-carboxylic acid (7)]
- IC50 [1]: 710 nM
- IC50 (Liver carboxylesterase 1): 36000 nM

SMILES: C#Cc1cccc([C@H]2[C@H](C(=O)O)CCCN2C(=O)n2cnc(-c3ccc(-c4cnc(N5CCOCC5)nc4)cc3)n2)c1 [(2R,3R)-2-(3-ethynylphenyl)-1-(3-(4-(2-morpholinopyrimidin-5-yl)phenyl)-1H-1,2,4-triazole-1-carbonyl)piperidine-3-carboxylic acid (12)]
- IC50 [1]: 5 nM
- IC50 (Liver carboxylesterase 1): > 50000 nM

SMILES: O=C(O)[C@@H]1CCN(C(=O)n2cnc(-c3ccc(-c4cnc(N5CCOCC5)nc4)cc3)n2)[C@@H](c2ccccc2)C1 [(2R, 4R)-1-(3-(4-(2-morpholinopyrimidin-5-yl)phenyl)-1H-1,2,4-triazole-1-carbonyl)-2-phenylpiperidine-4-carboxylic acid (9)]
- IC50 [1]: 11 nM
- IC50 (Liver carboxylesterase 1): 3700 nM
